Measured values taken from PubChem BioAssay (NCI).
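Growth conditions: 96-well plates. Treatment: test compound, 48 hours, 5 concentrations. Analysis: linear interpolation between bracketing concentrations; unreached endpoints set to highest concentration. Abbreviation: GI50, concentration required for 50% inhibition of growth. TGI: concentration producing complete growth inhibition.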

Columns and labels:
Test in all cases: inhibition of tumour cell growth, NCI panel, 48 h
[1] = test system: CCRF-CEM leukemia
[2] = test system: HCT-15 colon
[3] = test system: IGROV1 ovarian
[4] = test system: NCI-H226 lung
[5] = test system: NCI-H460 lung
[6] = test system: OVCAR-3 ovarian
[7] = test system: OVCAR-5 ovarian
[8] = test system: SR leukemia
[9] = test system: EKVX NSCLC
[10] = test system: MDA-MB-435
[11] = test system: MDA-N

Row | SMILES | TGI [1] | TGI [2] | TGI [3] | TGI [4] | TGI [5] | TGI [6] | TGI [7] | TGI [8] | TGI [9] | TGI [10] | TGI [11] | GI50 [1] | GI50 [2] | GI50 [10] | GI50 [4] | GI50 [5] | GI50 [6] | GI50 [7] | GI50 [8]
1 | O=C(c1ccccc1)c1c(CC(O)c2ccncc2)n(C(=O)c2ccccc2)c2ccccc12 (stereo not drawn) | 61.9 µM | 38.7 µM | 40.5 µM | 30.8 µM | 49.9 µM | 28.9 µM | 34.5 µM | 39.5 µM |  |  |  |  |  |  |  |  |  |  | 
2 | COC(=O)Cc1c(-c2c(CC(=O)OC)c3ccccc3n2C2OC(COC(C)=O)C(OC(C)=O)C(OC(C)=O)C2OC(C)=O)[nH]c2ccccc12 (stereo not drawn) | > 100 µM | > 100 µM | > 100 µM |  | > 100 µM | > 100 µM | > 100 µM | > 100 µM | > 100 µM | > 100 µM | > 100 µM |  |  |  |  |  |  |  | 
3 | COc1ccc(NC(=O)C(=O)/C=C(\O)c2ccccc2)cc1 | 8.76 µM | > 10 µM | > 10 µM |  |  |  |  | 3.41 µM | > 10 µM | > 10 µM | > 10 µM |  |  |  |  |  |  |  | 
4 | CSc1c(C#N)c(N)n(-c2ccc(Cl)cc2)c(=O)c1C#N |  | > 100 µM | > 100 µM | > 100 µM | > 100 µM | > 100 µM | > 100 µM | > 100 µM | > 100 µM | > 100 µM | > 100 µM |  |  |  |  |  |  |  | 
5 | COC(=O)C(=O)Cc1nc2ccccc2o1 | > 100 µM | > 100 µM |  |  | > 100 µM | > 100 µM | > 100 µM | > 100 µM | > 100 µM |  |  |  |  |  |  |  |  |  | 
6 | CN1CCN(P2(=S)Oc3ccc4ccccc4c3-c3c(ccc4ccccc34)O2)CC1 | > 100 µM | > 100 µM | > 100 µM | > 92.3 µM | 42.1 µM | > 100 µM | > 100 µM |  | > 77.8 µM |  |  |  |  |  |  |  |  |  | 
7 | CCOC(=O)C1CCCCN1C(=O)Cc1c[nH]c2ccccc12 (stereo not drawn) | > 100 µM | > 100 µM | > 100 µM | > 100 µM | > 100 µM | > 100 µM | > 100 µM |  | > 100 µM | > 100 µM | > 100 µM |  |  |  |  |  |  |  | 
8 | COc1ccc(Nc2ccc([N+](=O)[O-])cc2[N+](=O)[O-])cc1CN(CCCl)CCCl | 20.7 µM | 9.93 µM |  | 21.4 µM | 6.16 µM | 7.85 µM | 8.94 µM | 79.5 µM |  | 4.39 µM |  | 0.64 µM | 2.48 µM | 1.92 µM | 3.49 µM | 1.82 µM | 2.36 µM | 2.51 µM | 0.378 µM
9 | CCCn1c(=O)c(N2CCN(c3ccccc3)CC2)nc2sc3ccccc3c21 | > 100 µM | > 100 µM | > 100 µM |  | > 100 µM | > 100 µM | > 100 µM |  | > 100 µM | > 100 µM | > 100 µM |  |  |  |  |  |  |  | 
10 | c1ccc(N=C2c3ccsc3C(=Nc3ccccc3)c3ccsc32)cc1 | 15 µM | 4.12 µM | 4 µM | 11.4 µM | 4.03 µM | 6.55 µM | 3.12 µM |  | 4.31 µM | 0.378 µM | 0.554 µM |  |  |  |  |  |  |  | 
11 | CCOC(=O)c1c[nH]c2ccc3c(c2c1=O)S(=O)(=O)CC3 (tested in a mixture with another compound) | > 100 µM | > 100 µM | > 100 µM | > 100 µM | > 100 µM | > 100 µM | > 100 µM |  | > 100 µM |  |  |  |  |  |  |  |  |  | 
12 | CC(C)(C)OC(=O)NCCCCC(N)NC(=O)c1ccccc1 (stereo not drawn) | > 100 µM | > 100 µM | > 100 µM | > 100 µM | > 100 µM | > 100 µM | > 100 µM |  | > 100 µM | > 100 µM | > 100 µM |  |  |  |  |  |  |  | 
13 | Cc1cc(NS(=O)(=O)c2ccc(NC(=O)c3cccc4c(Nc5ccc(S(N)(=O)=O)cc5)c5ccccc5nc34)cc2)no1 | > 100 µM | > 100 µM |  |  | > 100 µM | > 100 µM | > 100 µM | > 100 µM | > 100 µM |  |  |  |  |  |  |  |  |  | 
14 | CCCCNc1nc(NC2OCC(OC(C)=O)C(OC(C)=O)C2OC(C)=O)c(N=O)c(=O)n1C (stereo not drawn) | > 10 µM | > 10 µM | > 10 µM | > 10 µM | > 10 µM | > 10 µM | > 10 µM | > 10 µM | > 10 µM | > 10 µM |  |  |  |  |  |  |  |  | 
15 | OC(c1cccnc1Cl)c1nc2ccccc2c2ccnc(Cl)c12 (stereo not drawn) |  | > 100 µM | > 100 µM |  | > 100 µM | > 100 µM | > 100 µM | 17.7 µM | > 100 µM | 4.89 µM | 4.49 µM |  |  |  |  |  |  |  | 
16 | CC(C)(CCC(C)(C)N1OC1c1ccccc1)N1OC1c1ccccc1 (stereo not drawn) | 35 µM | > 100 µM |  | > 100 µM | > 100 µM |  |  | 40.3 µM |  | > 100 µM | > 100 µM |  |  |  |  |  |  |  | 
17 | CNNC(=NS(=O)(=O)c1cc(C#N)c(NNC)cc1S)NNC | > 10 µM | > 10 µM | > 10 µM | > 10 µM | > 10 µM | > 10 µM | > 10 µM | > 10 µM | > 10 µM |  | > 10 µM |  |  |  |  |  |  |  | 
18 | Cc1cnc2c(c1C)C(=O)c1ccccc1C2=O | > 100 µM | 88.1 µM | > 100 µM | > 100 µM | 53.8 µM | > 100 µM | > 100 µM | > 100 µM | > 100 µM | 39.1 µM |  |  |  |  |  |  |  |  | 
19 | N#CCCC1(CCC#N)CCCCCCCCC(CCC#N)(CCC#N)C(O)C1O (stereo not drawn) |  | > 100 µM | > 100 µM | > 100 µM | > 100 µM | > 100 µM | > 100 µM |  | > 100 µM | > 100 µM | > 100 µM |  |  |  |  |  |  |  | 
20 | O=C1NC2CCCCCC2C12CCCCC2 (stereo not drawn) | > 100 µM | > 100 µM | > 100 µM | > 100 µM | > 100 µM | > 100 µM | > 100 µM | > 100 µM | > 100 µM |  |  |  |  |  |  |  |  |  | 
21 | COc1cccc(C(=O)C#Cc2cnc(OC)nc2OC)c1 |  | 0.516 µM | 2.12 µM | 2.75 µM | 28.3 µM | 3.62 µM | 8.05 µM |  | 3.9 µM | 5.24 µM | 3 µM |  |  |  |  |  |  |  | 
22 | O=C1CCCC/C1=C\c1ccc(Cl)c(Cl)c1 | 58.7 µM | 39.3 µM | 61.7 µM |  | 42.6 µM |  |  |  | > 100 µM |  |  |  |  |  |  |  |  |  | 
